Results from patent EP4603105A1, “PHARMACEUTICAL COMPOSITION CONTAINING CYCLIC COMPOUND HAVING SELECTIVE KRAS INHIBITORY EFFECT AGAINST HRAS AND NRAS” (CHUGAI SEIYAKU KABUSHIKI KAISHA, priority 2022, dated 2024).
Like-named read-outs stand apart in the source and are kept apart here.

Key:
[1] = biological target: GDP-bound KRAS wild-type protein (Homo sapiens, UniProt P01116); assay: Binding to KRAS by surface plasmon resonance (SPR), dissociation constant KD
Summary of the method: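 Read-out is KD from 1:1 fitting of single-cycle kinetics sensorgrams, blank-cycle and reference-surface corrected. Proteins were GDP-loaded, biotinylated Avi-fusions freshly captured each cycle at roughly 100–300 RU. Runs were at 30°C in HBS pH 7.4 with MgCl2, GDP and 4% DMSO.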

[2] = biological target: GDP-bound NRAS wild-type protein (Homo sapiens, UniProt P01111); assay: Binding to NRAS by surface plasmon resonance (SPR), KD and KD ratio to KRAS
Chain of GDP-bound NRAS wild-type protein (P01111 whole entry): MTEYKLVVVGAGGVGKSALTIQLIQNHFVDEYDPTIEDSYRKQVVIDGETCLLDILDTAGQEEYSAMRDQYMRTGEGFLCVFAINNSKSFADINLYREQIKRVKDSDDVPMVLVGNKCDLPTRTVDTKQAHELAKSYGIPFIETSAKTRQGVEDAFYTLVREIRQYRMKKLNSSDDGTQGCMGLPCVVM
Summary of the method: (§1)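 GDP-bound biotin-Avi RAS captured at ~100–300 RU, 30°C, pH 7.4 HBS containing 10 µM GDP, 10 mM MgCl2, 1 mM DTT, 0.01% Tween 20 and 4% DMSO. KD by 1:1 fitting.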

[3] = biological target: HRAS wild-type protein (Homo sapiens, UniProt P01112); assay: Binding to HRAS by surface plasmon resonance (SPR), KD and KD ratio to KRAS
Chain of HRAS wild-type protein (P01112 whole entry): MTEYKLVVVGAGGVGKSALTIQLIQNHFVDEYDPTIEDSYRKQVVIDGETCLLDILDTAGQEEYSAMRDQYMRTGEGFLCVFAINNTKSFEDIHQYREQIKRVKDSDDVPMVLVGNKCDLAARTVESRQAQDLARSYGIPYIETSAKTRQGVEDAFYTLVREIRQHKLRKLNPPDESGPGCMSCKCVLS
Summary of the method: as §1

[4] = test system: human lung cancer strain NCI-H441; assay: NCI-H441 cell proliferation inhibitory activity (CellTiter-Glo, 4 days); format: cell-based; conditions: read-out: NCl-H441 IC50
Summary of the method: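 Readout: […] after the ATP-based reagent. Compound: serial dilutions in dimethyl sulfoxide.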

[5] = ratio of KD for GDP-bound NRAS wild-type protein to KD for KRAS
[6] = ratio of KD for HRAS wild-type protein to KD for KRAS
[7] = Single Cycle Kinetics, 1:1 binding model
[8] = ratio of KD with respect to GDP-bound NRAS wild-type protein to KD with respect to KRAS
[9] = ratio of KD with respect to HRAS wild-type protein to KD with respect to KRAS
[10] = 50% proliferation inhibitory concentration, four days

Chain of GDP-bound KRAS wild-type protein (P01116 1-188 isoform P01116-2): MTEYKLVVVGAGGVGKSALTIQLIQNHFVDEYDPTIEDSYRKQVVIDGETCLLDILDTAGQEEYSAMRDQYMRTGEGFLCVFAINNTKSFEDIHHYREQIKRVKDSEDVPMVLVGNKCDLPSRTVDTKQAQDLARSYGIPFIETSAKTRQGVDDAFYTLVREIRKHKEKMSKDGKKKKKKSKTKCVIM

| SMILES | Kd ([1]; Single Cycle Kinetics) [nM] | IC50 ([4]; NCI-H441 cells, 4 days) [nM] | Kd [1, 7] [nM] | IC50 [4, 10] [nM] | Kd ([1]; 1:1 binding model) [nM] | NRAS /KRAS [2, 5] | HRAS /KRAS [3, 6] | NRAS /KRAS [2, 8] | HRAS /KRAS [3, 9] |
| --- | --- | --- | --- | --- | --- | --- | --- | --- | --- |
| CCO[C@@H]1C[C@H]2C(=O)NC3(CC(C)(C)C3)C(=O)N(C)[C@@H](C3CCCC3)C(=O)N(C)[C@H](C(=O)N(C)C)CC(=O)N(C)[C@@H]([C@H](C)OC)C(=O)N[C@@H]([C@@H](C)CC)C(=O)N(C)CC(=O)N(C)[C@H]3C/C=C\CCN(C3=O)[C@@H](Cc3ccc(C(F)(F)F)cc3)C(=O)N(C)CC(=O)N[C@@H](CCc3cc(F)c(C(F)(F)F)c(F)c3)C(=O)N2C1 [PP3169] | 0.064 | 7.9 |  |  |  | A (a compound having 10 or more and less than 20 is denoted as A) | A (a compound having 10 or more and less than 20 is denoted as A) |  |  |
| CCO[C@@H]1C[C@H]2C(=O)NC3(CCC3)C(=O)N(C)[C@@H](C(CC)CC)C(=O)N(C)[C@H](C(=O)N(C)C)CC(=O)N(C)[C@@H](CC3CCCC3)C(=O)N[C@@H]([C@@H](C)CC)C(=O)N(C)CC(=O)N(C)[C@H]3C/C=C\CCN(C3=O)[C@@H](Cc3ccc(C(F)(F)F)cc3)C(=O)N(C)CC(=O)N[C@@H](CCc3ccc(C(F)(F)F)c(OC)c3)C(=O)N2C1 [PP1212] |  |  | 0.28 | 35.6 |  |  |  | AA (a compound having 20 or more is denoted as AA) | A (a compound having 10 or more and less than 20 is denoted as A) |
| C#CCN1CC(=O)N(C)[C@H]2C/C=C\CCN(C2=O)[C@@H](Cc2ccc(C)cc2)C(=O)N(C)CC(=O)N[C@@H](CCc2cc(F)c(C(F)(F)F)c(F)c2)C(=O)N2C[C@H](OCC)C[C@H]2C(=O)NC2(CC(C)(C)C2)C(=O)N(C)[C@@H](C2CCCC2)C(=O)N(C)[C@H](C(=O)N(C)C)CC(=O)N(C)[C@@H](CCC)C(=O)N[C@@H](CC(C)C)C1=O [PP2512] |  | 109 |  |  | 2 | A (a compound having 10 or more and less than 20 is denoted as A) | A (a compound having 10 or more and less than 20 is denoted as A) |  |  |
| C#CCN1CC(=O)N(C)[C@H]2C/C=C\CCN(C2=O)[C@@H](Cc2ccc(C)cc2)C(=O)N(C)CC(=O)N[C@@H](CCc2ccc(C(F)(F)F)c(OC)c2)C(=O)N2C[C@H](OCC)C[C@H]2C(=O)NC2(CC(C)(C)C2)C(=O)N(C)[C@@H](C2CCCC2)C(=O)N(C)[C@H](C(=O)N(C)C)CC(=O)N(C)[C@@H](CCC)C(=O)N[C@@H](CC(C)C)C1=O [PP2514] |  | 86.8 |  |  | 2.4 | A (a compound having 10 or more and less than 20 is denoted as A) | B (a compound having 3 or more and less than 10 is denoted as B) |  |  |
| CC[C@H](C)[C@@H]1NC(=O)[C@H](CC2CC2)N(C)C(=O)C[C@@H](C)N(C)C(=O)[C@H](C2CCCC2)N(C)C(=O)C2(CCC2)NC(=O)[C@H](CC(F)F)N(C)C(=O)[C@H](CCc2cc(F)c(C(F)(F)F)c(F)c2)NC(=O)CN(C)C(=O)[C@H](Cc2ccc(C(F)(F)F)cc2)N2CC/C=C\C[C@@H](C2=O)N(C)C(=O)CN(C)C1=O [PP1405] |  |  | 8.5 | 466 |  |  |  | A (a compound having 10 or more and less than 20 is denoted as A) | A (a compound having 10 or more and less than 20 is denoted as A) |
| CC[C@H](C)[C@@H]1NC(=O)[C@H](COC)N(C)C(=O)C[C@@H](C(=O)N(C)C)N(C)C(=O)[C@H](C2CCCC2)N(C)C(=O)C2(CC(C)(C)C2)NC(=O)[C@@H]2C[C@@H](OC3CCC3)CN2C(=O)[C@H](CCc2cc(F)c(C(F)(F)F)c(F)c2)NC(=O)CN(C)C(=O)[C@H](CC2CCC(F)(F)CC2)N2CC/C=C\C[C@@H](C2=O)N(C)C(=O)CN(C2CC2)C1=O [PP2622] |  | 43.8 |  |  | 0.53 | A (a compound having 10 or more and less than 20 is denoted as A) | B (a compound having 3 or more and less than 10 is denoted as B) |  |  |
| CCCOC[C@H]1C(=O)N[C@@H]([C@@H](C)CC)C(=O)N(C)CC(=O)N(C)[C@H]2C/C=C\CCN(C2=O)[C@@H](Cc2ccc(C)cc2)C(=O)N(C)CC(=O)N[C@@H](CCc2ccc(C(F)(F)F)c(Cl)c2)C(=O)N2C[C@@H](C)C[C@H]2C(=O)NC2(CC(C)(C)C2)C(=O)N(C)[C@@H](C2CCCC2)C(=O)N(C)[C@H](C(=O)N(C)CC)CC(=O)N1C [PP2467] |  | 21.8 |  |  | 0.26 | A (a compound having 10 or more and less than 20 is denoted as A) | B (a compound having 3 or more and less than 10 is denoted as B) |  |  |
| CC[C@H](C)[C@@H]1NC(=O)[C@H](CC2CC2)N(C)C(=O)C[C@@H](C)N(C)C(=O)[C@H](C2CCCC2)N(C)C(=O)C2(CCC2)NC(=O)[C@H](CCC(F)F)N(C)C(=O)[C@H](CCc2cc(F)c(C(F)(F)F)c(F)c2)NC(=O)CN(C)C(=O)[C@H](Cc2ccc(C(F)(F)F)cc2)N2CC/C=C\C[C@@H](C2=O)N(C)C(=O)CN(C)C1=O [PP1404] |  |  | 4.8 | 498 |  |  |  | A (a compound having 10 or more and less than 20 is denoted as A) | A (a compound having 10 or more and less than 20 is denoted as A) |
| CCC[C@H]1C(=O)N[C@@H]([C@@H](C)CC)C(=O)N(C2CC2)CC(=O)N(C)[C@H]2C/C=C\CCN(C2=O)[C@@H](Cc2ccc(C)cc2)C(=O)N(C)CC(=O)N[C@@H](CCc2ccc(C(F)(F)F)c(OC)c2)C(=O)N2C[C@@H](C)C[C@H]2C(=O)N(C)C2(CCC2)C(=O)N(C)[C@@H](C2CCCC2)C(=O)N(C)[C@H](C(=O)N(C)C)CC(=O)N1C [PP2366] |  | 4.5 |  |  | 0.048 | A (a compound having 10 or more and less than 20 is denoted as A) | A (a compound having 10 or more and less than 20 is denoted as A) |  |  |

Second part, led by results:

| Kd ([1]; Single Cycle Kinetics) [nM] | IC50 ([4]; NCI-H441 cells, 4 days) [nM] | Kd [1, 7] [nM] | IC50 [4, 10] [nM] | Kd ([1]; 1:1 binding model) [nM] | SMILES | NRAS /KRAS [2, 5] | HRAS /KRAS [3, 6] | NRAS /KRAS [2, 8] | HRAS /KRAS [3, 9] |
| --- | --- | --- | --- | --- | --- | --- | --- | --- | --- |
| 0.23 | 8.7 |  |  |  | CCC[C@H]1C(=O)N[C@@H]([C@@H](C)CC)C(=O)N(C)CC(=O)N(C)[C@H]2C/C=C\CCN(C2=O)[C@@H](Cc2ccc(C)cc2)C(=O)N(C)CC(=O)N[C@@H](CCc2cc(F)c(C(F)(F)F)c(F)c2)C(=O)N2CC3(CC3)C[C@H]2C(=O)N(C)C2(CCC2)C(=O)N(C)[C@@H](C(CC)CC)C(=O)N(C)[C@H](C(=O)N(C)C)CC(=O)N1C [PP3329] | A (a compound having 10 or more and less than 20 is denoted as A) | B (a compound having 3 or more and less than 10 is denoted as B) |  |  |
| 0.24 | 9.5 |  |  |  | CCO[C@@H]1C[C@H]2C(=O)OC3(CCC3)C(=O)N(C)[C@@H](C3CCCC3)C(=O)N(C)[C@H](C(=O)N(C)C)CC(=O)N(C)[C@@H]([C@H](C)OC)C(=O)N[C@@H]([C@@H](C)CC)C(=O)N(C)CC(=O)N(C)[C@H]3C/C=C\CCN(C3=O)[C@@H](Cc3ccc(C(F)(F)F)cc3)C(=O)N(C)CC(=O)N[C@@H](CCc3ccc(C(F)(F)F)c(OC)c3)C(=O)N2C1 [PP3379] | A (a compound having 10 or more and less than 20 is denoted as A) | B (a compound having 3 or more and less than 10 is denoted as B) |  |  |
| 1.3 | 65.5 |  |  |  | C=C(C)C[C@H]1C(=O)N(C)[C@H](C(=O)N(C)C)CC(=O)N(C)[C@@H](CCC)C(=O)N[C@@H]([C@@H](C)CC)C(=O)N(C)CC(=O)N(C)[C@H]2C/C=C\CCN(C2=O)[C@@H](Cc2ccc(C(F)(F)F)cc2)C(=O)N(C)CC(=O)N[C@@H](CCc2cc(F)c(C(F)(F)F)c(F)c2)C(=O)N2C[C@H](OCC)C[C@H]2C(=O)N(C)C2(CCC2)C(=O)N1C [PP3337] | A (a compound having 10 or more and less than 20 is denoted as A) | A (a compound having 10 or more and less than 20 is denoted as A) |  |  |
| 2.4 | 29.3 |  |  |  | CCC[C@H]1C(=O)N[C@@H](C23CC(C2)C3)C(=O)N2CCC[C@H]2C(=O)N(C)[C@H]2C/C=C\CCN(C2=O)[C@@H](Cc2ccc(C(F)(F)F)cc2)C(=O)N(C)CC(=O)N[C@@H](CCc2ccc(C(F)(F)F)c(OC)c2)C(=O)N2C[C@H](OCC)C[C@H]2C(=O)N(C)C2(CCC2)C(=O)N(C)[C@@H](C2CCCC2)C(=O)N(C)[C@H](C(=O)N(C)C)CC(=O)N1C [PP3343] | A (a compound having 10 or more and less than 20 is denoted as A) | A (a compound having 10 or more and less than 20 is denoted as A) |  |  |
| 1.5 | 66.1 |  |  |  | C=CC[C@H]1C(=O)N(C)[C@H](C(=O)N(C)C)CC(=O)N(C)[C@@H](CCC)C(=O)N[C@@H]([C@@H](C)CC)C(=O)N(C)CC(=O)N(C)[C@H]2C/C=C\CCN(C2=O)[C@@H](Cc2ccc(C(F)(F)F)cc2)C(=O)N(C)CC(=O)N[C@@H](CCc2cc(F)c(C(F)(F)F)c(F)c2)C(=O)N2C[C@H](OCC)C[C@H]2C(=O)N(C)C2(CCC2)C(=O)N1C [PP3336] | A (a compound having 10 or more and less than 20 is denoted as A) | A (a compound having 10 or more and less than 20 is denoted as A) |  |  |
| 0.68 | 39.7 |  |  |  | CCCO[C@@H]1C[C@H]2C(=O)NC3(CC(C)(C)C3)C(=O)N(C)[C@@H](C3CCCC3)C(=O)N(C)[C@H](C(=O)N(C)CC)CC(=O)N(C)[C@@H](COCC)C(=O)N[C@@H]([C@@H](C)CC)C(=O)N(C3CC3)CC(=O)N(C)[C@H]3C/C=C\CCN(C3=O)[C@@H](Cc3ccc(C)cc3)C(=O)N(C)CC(=O)N[C@@H](CCc3ccc(C(F)(F)F)c(Cl)c3)C(=O)N2C1 [PP3462] | AA (a compound having 20 or more is denoted as AA) | A (a compound having 10 or more and less than 20 is denoted as A) |  |  |
